Laboratory results from patent US7276337B2, “Compositions and methods for visual ribonuclease detection assays” (Integrated DNA Technologies, Inc., priority 2000, dated 2007).

Tests used:
Ribonuclease T1 = biological target: T1, Ribonuclease T1 (Aspergillus oryzae, UniProt P00651); assay: Visual detection ribonuclease assay, cleavage of Substrate ODN by RNase T1; type: biochemical; parameters: key to Sensitivity of Substrate ODN to Ribonuclease T1, relative signal intensity: +++ = maximum intensity; ++ = moderate intensity; + = faint but above background; − = negative (identical to background); conditions: visual inspection, UV excitation, Substrate 500 nM, 37° C. 60 minutes
T1 sequence (P00651 27-130): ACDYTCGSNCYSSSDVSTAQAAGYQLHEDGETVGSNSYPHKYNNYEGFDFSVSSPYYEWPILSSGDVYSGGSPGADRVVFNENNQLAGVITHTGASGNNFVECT
Method: (§1) Nuclease assays were conducted using the method of the invention with both visual and fluorometric detection methods. Substrates were individually mixed in 1× Assay Buffer at a concentration of 50 nM (50 pmoles oligonucleotide in 1 ml volume) for fluorometric detection or at a concentration of 500 nM (50 pmoles of oligonucleotide in 100 ul volume) for visual detection. Test nucleases were added to respective Assay Mixes beginning at 1 ul stock reagent and proceeding with a 1:10 serial dilution until undetectable. Reaction mixes were incubated at 37° C. for 60 minutes. Fluorometric detection was performed as outlined in Example 2. Visual detection was performed as outlined in Example 1.
(§2) Table 7: Sensitivity of different Substrate ODNs to Ribonuclease T1. A series of Substrate ODNs were synthesized and tested for sensitivity to RNase T1 degradation. Stock enzyme was serial diluted to achieve final concentrations of 0.001 units/ml, 0.0001 units/ml, and 0.00001 units/ml as indicated. Reactions were examined for fluorescence emission by visual inspection using an ultraviolet (UV) light source for excitation. Results were scored as +++, ++, +, or − based on relative signal intensity.
(§3) It is commonly accepted that fluorometry provides for high sensitivity. To be useful, the visual method must also offer high sensitivity. Assays were conducted using the method of the invention with visual detection. Substrate SEQ ID NO:30 was mixed in 1× Assay Buffer at a concentration of 500 nM (50 pmoles ODN in 100 ul volume) in thin-walled, UV transparent tubes. […] Dilutions of stock RNase A, RNase 1, and RNase T1 were made in water. Undiluted and diluted nuclease (1 ul) was added to respective 100 ul Assay Mixes resulting in final dilution factors of 10^−2, 10^−3, 10^−4, 10^−5, 10^−6, and 10^−7. Assays were incubated at room temperature for 10 minutes and visually examined for fluorescence emission with UV excitation. […] The experiment took about 30 minutes to perform, including 15 minutes to set-up serial dilutions, 10 minutes incubation, and 5 minutes to visualize and photograph. Thus the method of the invention allows for a rapid, simple, and convenient visual assay for the presence of ribonuclease activity.

Ribonuclease A = biological target: T2, Ribonuclease A (Bos taurus, UniProt P61823); assay: Visual detection ribonuclease assay, cleavage of Substrate ODN by RNase A; type: biochemical, mammalian; parameters: key to Sensitivity of Substrate ODN to Ribonuclease A, relative signal intensity: +++ = maximum intensity; ++ = moderate intensity; + = faint but above background; − = negative (identical to background); conditions: visual inspection, UV excitation, Substrate 500 nM, 37° C. 60 minutes
T2 sequence (P61823 27-150): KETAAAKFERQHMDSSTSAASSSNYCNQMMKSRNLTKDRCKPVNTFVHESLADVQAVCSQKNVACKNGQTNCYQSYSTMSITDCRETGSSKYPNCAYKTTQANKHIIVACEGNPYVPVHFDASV
Method: Nuclease assays were conducted using the methods of the invention. SEQ ID NO:2 and SEQ ID NO:30 oligonucleotides were individually mixed in 1× Assay Buffer at a concentration of 500 nM (50 pmoles ODN in 100 ul volume) in thin-walled, UV transparent microtubes. RNase A (1 ul, diluted to 0;1 ug/ul) was added to the respective Assay Mixes. […] Assays were set up directly in microtubes as follows:
Assay Mixes were incubated at room temperature for 10 minutes. Assays were visually examined for fluorescence emission directly in the assay tubes without further manipulation. Tubes were suspended above an ultraviolet light source, visually inspected, and photographed using a digital camera. […] The “positive” and “control” reactions appeared markedly different and were easily distinguished. […] The “positive” and “control” reactions were not markedly different to visual inspection.
as §1
as §2, with “6:” for “7:”, “A.” for “T1.”, “A” for “T1”, “1 ng/ml, 100 pg/ml,” for “0.001 units/ml, 0.0001 units/ml,”, “10 pg/ml” for “0.00001 units/ml”
as §3

[1] = tested on: Substrate oligonucleotide SEQ ID NO:30; assay: RNase testing of commercially obtained reagents, visual detection; type: biochemical; parameters: key: +++ = maximum intensity; ++ = moderate intensity; + = faint but above background; − = negative (identical to background); conditions: reagent diluted 1:10 with Assay Buffer, 50 pmoles Substrate SEQ ID NO:30, 60 minutes at 37° C., UV
Method: Enzymes were obtained from New England Biolabs (NEB) or Ambion as indicated. Test sample (10 ul) was mixed with 1× buffer (90 ul) for a final volume of 100 ul with 50 pmoles of Substrate SEQ ID NO:30 in 0.5 ml RNase-free microtubes. Assay Mixes were incubated 60 minutes at 37° C. and visually examined under UV excitation for fluorescence emission. After scoring for results, 1 ul (1 ug) of RNase A was added to each tube. The Assay was incubated an additional 5 minutes at 37° C. and re-scored. The addition of RNase A represents a control for the absence of an Assay inhibitor and validates negative results. The “plus RNase A” control was omitted whenever the primary assay was already positive.
Table 9: RNase testing of commercially available reagents. A series of commercially available reagents were diluted 1:10 with Assay Buffer to a final volume of 100 ul. An RNase detection assay was performed using the method of the invention with Substrate oligonucleotide SEQ ID NO:30. Reactions were examined for fluorescence emission by visual inspection using an ultraviolet (UV) light source for excitation. Results were scored as +++, ++, +, or − based on relative signal intensity. As a control, RNase A (1 ug) was added to negative reactions and the Assay was re-scored. ND=not done.

Substance	Sensitivity of Substrate ODN to Ribonuclease T1, relative signal intensity (Ribonuclease T1; RNase T1 10^−3 units/ml)	Sensitivity of Substrate ODN to Ribonuclease T1, relative signal intensity (Ribonuclease T1; RNase T1 10^−4 units/ml)	Sensitivity of Substrate ODN to Ribonuclease T1, relative signal intensity (Ribonuclease T1; RNase T1 10^−5 units/ml)	Sensitivity of Substrate ODN to Ribonuclease A, relative signal intensity (Ribonuclease A; RNase A 10 pg/ml)	Sensitivity of Substrate ODN to Ribonuclease A, relative signal intensity (Ribonuclease A; RNase A 100 pg/ml)	Sensitivity of Substrate ODN to Ribonuclease A, relative signal intensity (Ribonuclease A; RNase A 1 ng/ml)	Assay Results (RNase activity in reagent, relative signal intensity) [1]
5′ Fluorescein-AgaAA-Dabcyl 3′ (NAGAAAN; 5' fluorescein and 3' Dabcyl labels, nucleotide chemistry not given here) [SEQ ID NO:9]	+	+	−	−	−	−	
5′ Fluorescein-AgcuAA-Dabcyl 3′ (NAGCUAAN; 5' fluorescein and 3' Dabcyl labels, nucleotide chemistry not given here) [SEQ ID NO:11]	+	−	−	−	−	++	
5′ Fluorescein-AgcuaA-Dabcyl 3′ (NAGCUAAN; 5' fluorescein and 3' Dabcyl labels, nucleotide chemistry not given here) [SEQ ID NO:22]	+++	+	−	−	++	+++	
5′ Fluorescein-AguAA-Dabcyl 3′ (NAGUAAN; 5' fluorescein and 3' Dabcyl labels, nucleotide chemistry not given here) [SEQ ID NO:7]	+	−	−	−	−	+	
5′ Fluorescein-AgucAA-Dabcyl 3′ (NAGUCAAN; 5' fluorescein and 3' Dabcyl labels, nucleotide chemistry not given here) [SEQ ID NO:10]	+	−	−	−	−	++	
5′ Fluorescein-AgucaA-Dabcyl 3′ (NAGUCAAN; 5' fluorescein and 3' Dabcyl labels, nucleotide chemistry not given here) [SEQ ID NO:23]	++	−	−	−	+	+++	
5′ Fluorescein-AuagA-Dabcyl 3′ (NAUAGAN; 5' fluorescein and 3' Dabcyl labels, nucleotide chemistry not given here) [SEQ ID NO:16]	+++	+++	−	−	++	+++	
Hind III: commercial enzyme from New England Biolabs, sold as RNase-free							−
Super Taq: commercial enzyme reagent from Ambion, sold as RNase-free							−
T7 RNA Polymerase: commercial enzyme reagent from Ambion, sold as RNase-free							−
